{
  "source": "patent US6500819B2",
  "about": "“Bicyclolactam compounds, use thereof and intermediates for preparing thereof” (Taiho Pharmaceutical Company Limited, priority 1994, dated 2002)",
  "key": {"[1]": {"tested_on": "Wistar rats", "assay": "Anticonflict test (first part, Test Example 1)", "assay_type": "in vivo", "conditions": "for Frequency of water drinking behavior: 1 h before test, value relative to control = 100", "experimental": "Wistar rats (males weighing 140 to 160 g) were used for experiment in groups of 11 to 14.\nThe test compound, diazepam or buspirone was suspended in a 0.5 % sodiumn carboxymethyl cellulose solution, and the suspension was orally given to the animal in a volume of 5 mnl/kg one hour before the start of experiment.\nWith reference to a method described in “Process in Anxiolytics and Antidepresants,” ediled by Showa Ueki and Tatsuo Furukawa, Ishiyaku Shuppansha, 56-59 (1981) , the agents were tested using experimental boxes having a grid floor and a metal drinking tube in the floor. No water was supplied to the rats for 48 hours before the experiment. Upon lapse of first 24 hours, each group of rats were placed into the experimental box, permitted access to water for 30 seconds and caused to recognize the metal drinking tube. Upon lapse of further 24 hours with access to water prevented, the rats were placed into the box again and permitted access to water on condition that an electric current was passed between the metal drinking tube and the grid to give an electroshock for every 20 times of water drinking behavior to measure the frequency of water drinking behavior for 3 minutes.\nThe frequency is expessed by a value relative to the frequency of the control which is taken as 100."}, "[2]": {"tested_on": "ddY mice", "assay": "Muscle relaxant effect (traction method), first part", "conditions": "mouse, in vivo, po, 300 mg/kg", "experimental": "Muscle Relaxant Effect (Traction Method)\n(§1) Compound 3, Compound 13, diazepam or buspirone was suspended in a 0.5 % sodium carboxymethyl cellulose solution, and the suspension was orally administered to 3- to 4-week-old male ddY mice (in groups of 5) in a volume of 10 ml/kg one hour before the start of experiment.\nWith reference to a method described in Japan. J. Pharmacol., 49. 337˜349(1989), the foreleg of the mouse was hung on a horizontal wire, having a diameter of 1.2 mm and fixed at a level of 30 cm, three times consecutively. […] Thus, ED5 0 was determined for evaluation. […] Diazepam and buspirone were 2.2 mg/kg and 427.8 mg/kg, respectively, in ED5 0."}, "[3]": {"tested_on": "ddY mice", "assay": "Sedative effect (spontaneous locomotor activity), first part", "conditions": "mouse, in vivo, po, 300 mg/kg", "experimental": "Sedative Effect (Spontaneous Locomotor Activity)\nas §1\nThe test was conducted with reference to a method described in “Evaluation of Medicinal Efficacies (1), Pharmacological Test Method (1), Basic Lectures on Development of Pharmaceuticals,” 50˜54(1971). More specifically, the group of mice were given the test drug and thereafter measured the amount of spontaneous locomotor activity for 10 minutes per mouse rising Animex MK-110 (product of Muromachi Kikai Co., Ltd.)."}, "[4]": {"tested_on": "ddY mice", "assay": "Effect on central nervous system depressant: pentobarbital anesthetic method", "conditions": "oral, mice; pentobarbital 40 mg/kg i.p.", "experimental": "(§2) Effect On Central Nervous System Depressant\na. Pentobarbital Anesthetic Method\nCompound 3, Compound 13, diazepam or buspirone was suspended in a 0.5 % sodium carboxymethyl cellulose solution, and the suspension was orally administered to 3- to 4-week-old male ddY mice (in groups of 5 to 10) in a volume of 10 ml/kg one hour before the start of experiment.\nThe test was conducted with reference to a method described in “Evaluation of Medicinal Efficacies (1), Pharmacological Test Method (1), Basic lectures on Development of Pharmaceuticals,” 144˜145(1971). More specifically, the group of mice were intraperitoneally given pentobarbital at a dose of 40 mg/kg and checked for sleeping time."}, "[5]": {"tested_on": "ddY mice", "assay": "Effect on central nervous system depressant: ethanol enhancing method, first part", "conditions": "mouse, in vivo, po, 300 mg/kg", "experimental": "as §2\nb. Ethanol Enhancing Method\n(§3) Compound 3, Compound 13, diazepam or buspirone was suspended in a 0.5 % sodium carboxymethyl cellulose solution, and the suspension was orally administered to 3- to 4-week-old male ddY mice (in groups of 6) in a volume of 10 ml/kg one hour before the start of experiment.\nThe test was conducted with reference to a method described in Japan. J. Pharmacol., 49, 337˜349(1989). More specifically, the group of mice were intraperitoneally given 25 % ethanol at a dose of 20 ml/kg and checked for the time interval between loss and recovery of the righting reflex."}, "[6]": {"tested_on": "ddY mice", "assay": "Anticonvulsant effect (pentylenetetrazol-induced convulsion method), first part", "assay_type": "in vivo", "conditions": "oral, dose of 300 mg/kg", "experimental": "Anticonvulsant Effect (Pentylenetetrazol-Induced Convulsion Method)\nas §3\nThe test was conducted with reference to a method described in “Evaluation of Medicinal Efficacies (1), Pharmacological Test Method (1), Basic lectures on Development of Pharmaceuticals,” 167˜172(1971)."}, "[7]": {"tested_on": "ddY mice", "assay": "Acute toxicity test (LD50), first part", "assay_type": "in vivo", "conditions": "oral, male ddY mice, observed for 3 days"}},
  "data": [
    {"smiles": "COc1ccc(C(=O)N2C(=O)CCC3C(O)CCC32)cc1", "note": "(centres unmarked) [Compound 13, γ-6,c-7-Hydroxy-2-(4-methoxybenzoyl)-2-azabicyclo-[4.3.0]nonan-3-one]", "values": [
      {"measurement": "Frequency of water drinking behavior", "setting": "[1]; dose 0.001 mg/kg oral", "value": 130, "unit": "%"},
      {"measurement": "Frequency of water drinking behavior", "setting": "[1]; dose 0.01 mg/kg oral", "value": 183, "unit": "%"},
      {"measurement": "Frequency of water drinking behavior", "setting": "[1]; dose 0.1 mg/kg oral", "value": 177, "unit": "%"},
      {"measurement": "Frequency of water drinking behavior", "setting": "[1]; dose 1.0 mg/kg oral", "value": 169, "unit": "%"},
      {"measurement": "Anxiolytic effect in the anticonflict test (in words)", "setting": "[1]; oral, compounds at doses of 0.001 to 1.0 mg/kg", "value": "increase in the frequency of water drinking behavior"},
      {"measurement": "Muscle relaxant effect (in words)", "setting": "[2]", "value": "no muscle relaxant effect"},
      {"measurement": "Sedative effect (in words)", "setting": "[3]", "value": "no sedative effect"},
      {"measurement": "ED50, pentobarbital sleeping time in excess of twice control", "setting": "[4]", "value": 224.5, "unit": "mg/kg"},
      {"measurement": "Ethanol enhancing effect (in words)", "setting": "[5]", "value": "no ethanol enhancing effect"},
      {"measurement": "Anticonvulsant effect (in words)", "setting": "[6]", "value": "no anticonvtilsant effect"},
      {"measurement": "Acute Toxicity LD50", "setting": "[7]", "value": "3000< mg/kg"}
    ]}
  ]
}
